Data reported in the supplement of paper PMC10307832.

Experiments:
Assay in all cases: relative viability (nuclei count vs DMSO), 5 days (fraction); higher = more cells survive
SW 1573 = system: SW 1573
Summary of the method: (§1)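 For relative viability, nuclei counts in treated wells were divided by those in vehicle wells. Lung cancer cell lines had been pin-tool dosed in 1536-well plates the day after seeding and cultured for 5 days, then fixed and stained in one step (final 0.05% Triton X-100, 1% formaldehyde, 1 ug/ml Hoechst) and imaged at 4×. Doses were one drug alone or a fixed anchor-drug dose plus five library-drug doses (not always all listed) in √10 steps, and values are duplicate-plate medians.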

NCI-H2228 = system: NCI-H2228
Summary of the method: as §1

NCI-H1915 = system: NCI-H1915
Summary of the method: as §1

NCI-H2342 = system: NCI-H2342
Summary of the method: as §1

UMC-11 = system: UMC-11
Summary of the method: as §1

LC-2-ad = system: LC-2-ad
Summary of the method: as §1

A-427 = system: A-427
Summary of the method: as §1

RERF-LC-KJ = system: RERF-LC-KJ
Summary of the method: as §1

NCI-H23 = system: NCI-H23
Summary of the method: as §1

HCC-366 = system: HCC-366
Summary of the method: as §1

NCI-H2170 = system: NCI-H2170
Summary of the method: as §1

NCI-H650 = system: NCI-H650
Summary of the method: as §1

NCI-H1993 = system: NCI-H1993
Summary of the method: as §1

NCI-H1792 = system: NCI-H1792
Summary of the method: as §1

NCI-H2347 = system: NCI-H2347
Summary of the method: as §1

SK-LU-1 = system: SK-LU-1
Summary of the method: as §1

HCC-827 = system: HCC-827
Summary of the method: as §1

NCI-H1734 = system: NCI-H1734
Summary of the method: as §1

NCI-H1355 = system: NCI-H1355
Summary of the method: as §1

LCLC-103H = system: LCLC-103H
Summary of the method: as §1

NCI-H1755 = system: NCI-H1755
Summary of the method: as §1

SK-MES-1 = system: SK-MES-1
Summary of the method: as §1

NCI-H1975 = system: NCI-H1975
Summary of the method: as §1

CCNC(=O)c1noc(-c2cc(C(C)C)c(O)cc2O)c1-c1ccc(CN2CCOCC2)cc1 [Luminespib] + Cc1nc(Nc2ncc(C(=O)Nc3c(C)cccc3Cl)s2)cc(N2CCN(CCO)CC2)n1 [Dasatinib] (partner 0.075 µM)
relative viability (SW 1573; first compound 0.002 µM): 0.506 | relative viability (SW 1573; first compound 0.006325 µM): 0.532 | relative viability (SW 1573; first compound 0.02 µM): 0.13 | relative viability (SW 1573; first compound 0.06325 µM): 0.0551 | relative viability (SW 1573; first compound 0.2 µM): 0.0703 | relative viability (NCI-H2228; first compound 0.002 µM): 0.423 | relative viability (NCI-H2228; first compound 0.006325 µM): 0.387 | relative viability (NCI-H2228; first compound 0.02 µM): 0.103 | relative viability (NCI-H2228; first compound 0.06325 µM): 0.096 | relative viability (NCI-H2228; first compound 0.2 µM): 0.101 | relative viability (NCI-H1915; first compound 0.002 µM): 0.311 | relative viability (NCI-H1915; first compound 0.006325 µM): 0.299 | relative viability (NCI-H1915; first compound 0.02 µM): 0.234 | relative viability (NCI-H1915; first compound 0.06325 µM): 0.236 | relative viability (NCI-H1915; first compound 0.2 µM): 0.0739 | relative viability (NCI-H2342; first compound 0.002 µM): 0.351 | relative viability (NCI-H2342; first compound 0.006325 µM): 0.33 | relative viability (NCI-H2342; first compound 0.02 µM): 0.287 | relative viability (NCI-H2342; first compound 0.06325 µM): 0.259 | relative viability (NCI-H2342; first compound 0.2 µM): 0.311 | relative viability (UMC-11; first compound 0.002 µM): 0.474 | relative viability (UMC-11; first compound 0.006325 µM): 0.488 | relative viability (UMC-11; first compound 0.02 µM): 0.309 | relative viability (UMC-11; first compound 0.06325 µM): 0.214 | relative viability (UMC-11; first compound 0.2 µM): 0.153 | relative viability (LC-2-ad; first compound 0.002 µM): 0.583 | relative viability (LC-2-ad; first compound 0.006325 µM): 0.567 | relative viability (LC-2-ad; first compound 0.02 µM): 0.447 | relative viability (LC-2-ad; first compound 0.06325 µM): 0.142 | relative viability (LC-2-ad; first compound 0.2 µM): 0.16 | relative viability (A-427; first compound 0.002 µM): 0.779 | relative viability (A-427; first compound 0.006325 µM): 0.671 | relative viability (A-427; first compound 0.02 µM): 0.483 | relative viability (A-427; first compound 0.06325 µM): 0.33 | relative viability (A-427; first compound 0.2 µM): 0.128 | relative viability (RERF-LC-KJ; first compound 0.002 µM): 0.833 | relative viability (RERF-LC-KJ; first compound 0.006325 µM): 0.897 | relative viability (RERF-LC-KJ; first compound 0.02 µM): 0.603 | relative viability (RERF-LC-KJ; first compound 0.06325 µM): 0.232 | relative viability (RERF-LC-KJ; first compound 0.2 µM): 0.234 | relative viability (NCI-H23; first compound 0.002 µM): 0.839 | relative viability (NCI-H23; first compound 0.006325 µM): 0.765 | relative viability (NCI-H23; first compound 0.02 µM): 0.517 | relative viability (NCI-H23; first compound 0.06325 µM): 0.118 | relative viability (NCI-H23; first compound 0.2 µM): 0.13 | relative viability (HCC-366; first compound 0.002 µM): 0.615 | relative viability (HCC-366; first compound 0.006325 µM): 0.576 | relative viability (HCC-366; first compound 0.02 µM): 0.652 | relative viability (HCC-366; first compound 0.06325 µM): 0.0301 | relative viability (HCC-366; first compound 0.2 µM): 0.0393 | relative viability (NCI-H2170; first compound 0.002 µM): 0.503 | relative viability (NCI-H2170; first compound 0.006325 µM): 0.578 | relative viability (NCI-H2170; first compound 0.02 µM): 0.308 | relative viability (NCI-H2170; first compound 0.06325 µM): 0.163 | relative viability (NCI-H2170; first compound 0.2 µM): 0.106 | relative viability (NCI-H650; first compound 0.002 µM): 0.468 | relative viability (NCI-H650; first compound 0.006325 µM): 0.417 | relative viability (NCI-H650; first compound 0.02 µM): 0.359 | relative viability (NCI-H650; first compound 0.06325 µM): 0.112 | relative viability (NCI-H650; first compound 0.2 µM): 0.115 | relative viability (NCI-H1993; first compound 0.002 µM): 0.633 | relative viability (NCI-H1993; first compound 0.006325 µM): 0.534 | relative viability (NCI-H1993; first compound 0.02 µM): 0.431 | relative viability (NCI-H1993; first compound 0.06325 µM): 0.331 | relative viability (NCI-H1993; first compound 0.2 µM): 0.353 | relative viability (NCI-H1792; first compound 0.002 µM): 0.737 | relative viability (NCI-H1792; first compound 0.006325 µM): 0.619 | relative viability (NCI-H1792; first compound 0.02 µM): 0.722 | relative viability (NCI-H1792; first compound 0.06325 µM): 0.361 | relative viability (NCI-H1792; first compound 0.2 µM): 0.242 | relative viability (NCI-H2347; first compound 0.002 µM): 0.299 | relative viability (NCI-H2347; first compound 0.006325 µM): 0.245 | relative viability (NCI-H2347; first compound 0.02 µM): 0.291 | relative viability (NCI-H2347; first compound 0.06325 µM): 0.256 | relative viability (NCI-H2347; first compound 0.2 µM): 0.198 | relative viability (SK-LU-1; first compound 0.002 µM): 0.194 | relative viability (SK-LU-1; first compound 0.006325 µM): 0.167 | relative viability (SK-LU-1; first compound 0.02 µM): 0.077 | relative viability (SK-LU-1; first compound 0.06325 µM): 0.049 | relative viability (SK-LU-1; first compound 0.2 µM): 0.0612 | relative viability (HCC-827; first compound 0.002 µM): 0.217 | relative viability (HCC-827; first compound 0.006325 µM): 0.262 | relative viability (HCC-827; first compound 0.02 µM): 0.219 | relative viability (HCC-827; first compound 0.06325 µM): 0.259 | relative viability (HCC-827; first compound 0.2 µM): 0.117 | relative viability (NCI-H1734; first compound 0.002 µM): 0.552 | relative viability (NCI-H1734; first compound 0.006325 µM): 0.419 | relative viability (NCI-H1734; first compound 0.02 µM): 0.314 | relative viability (NCI-H1734; first compound 0.06325 µM): 0.117 | relative viability (NCI-H1734; first compound 0.2 µM): 0.106 | relative viability (NCI-H1355; first compound 0.002 µM): 0.678 | relative viability (NCI-H1355; first compound 0.006325 µM): 0.656 | relative viability (NCI-H1355; first compound 0.02 µM): 0.473 | relative viability (NCI-H1355; first compound 0.06325 µM): 0.414 | relative viability (NCI-H1355; first compound 0.2 µM): 0.153 | relative viability (LCLC-103H; first compound 0.002 µM): 0.493 | relative viability (LCLC-103H; first compound 0.006325 µM): 0.491 | relative viability (LCLC-103H; first compound 0.02 µM): 0.41 | relative viability (LCLC-103H; first compound 0.06325 µM): 0.536 | relative viability (LCLC-103H; first compound 0.2 µM): 0.529 | relative viability (NCI-H1755; first compound 0.002 µM): 0.394 | relative viability (NCI-H1755; first compound 0.006325 µM): 0.472 | relative viability (NCI-H1755; first compound 0.02 µM): 0.455 | relative viability (NCI-H1755; first compound 0.06325 µM): 0.258 | relative viability (NCI-H1755; first compound 0.2 µM): 0.119 | relative viability (SK-MES-1; first compound 0.002 µM): 0.333 | relative viability (SK-MES-1; first compound 0.006325 µM): 0.376 | relative viability (SK-MES-1; first compound 0.02 µM): 0.217 | relative viability (SK-MES-1; first compound 0.06325 µM): 0.0911 | relative viability (SK-MES-1; first compound 0.2 µM): 0.0956 | relative viability (NCI-H1975; first compound 0.002 µM): 0.382 | relative viability (NCI-H1975; first compound 0.006325 µM): 0.347 | relative viability (NCI-H1975; first compound 0.02 µM): 0.14 | relative viability (NCI-H1975; first compound 0.06325 µM): 0.093 | relative viability (NCI-H1975; first compound 0.2 µM): 0.0892
